Source: patent US11541065B2, “Compositions and methods for treating brain injury” (UNM RAINFOREST INNOVATIONS, priority 2018, dated 2023)

Tests used:
[1] = system: rat cortical neuron cultures; assay: OGD / re-oxygenation cell death, Hoechst DNA staining; assay type: cell-based; settings: OGD two hours in the presence of homocysteine 50 μM, re-oxygenation 22 hours, vs OGD alone
Method: At specified time periods (one hour, two hours, and three hours) during OGD alone or OGD in the presence of L-Hcy (50 μM), cells were removed from the chamber and lysed for immunoblot analysis. Some cultures were treated with L-Hcy (three hours) during the OGD insult in the presence or absence of NVP-AAM077 (30 nM; 3 h). […] Cells were then subjected to staining with Hoechst 33342 dye for 15 minutes, washed extensively with PBS, and analyzed using fluorescent microscopy to assess nuclear damage. To quantitatively assess the percentage of pyknotic nuclei, a total of 1000 cells were counted for each set of experiments (Poddar et al., 2010, J Neurochem 115, 1350-1362).

PGE2 = PGE2 release from WT and GluN2A-KO mouse neuronal cultures; assay type: cell-based, mice; settings: homocysteine 50 μM, four hours
Method: Neuron cultures were treated with or without L-homocysteine in the presence or absence of pharmacological inhibitors for the time period specified in each experiment. The medium was collected from each experimental plate and centrifuged at 1000 rpm for five minutes to remove cellular debris. Equal amounts (100 μl) of the supernatant from each sample were used to determine the amount of PGE2 using the PGE2 enzyme immunoassay kit according to the manufacturer's instructions. For measurement of cPLA2 activity, the neuronal cells from the above treated conditions were harvested in ice-cold Tris-buffered saline (pH7.4) containing sodium pyrophosphate as phosphatase inhibitor, sonicated three times with five-second bursts and two minutes on ice between intervals. The lysed cell suspensions were centrifuged at 10,000 rpm for 10 minutes and the supernatant removed. Equal amounts of protein from the supernatant (assessed using BCA protein estimation kit) were estimated for activity of cPLA2 using cPLA2 activity assay kit according to the manufacturer's protocol.
For measurement of PGE2 levels and MCP-1 levels released from neurons, culture medium was collected from each experimental plate and centrifuged at 1000 rpm for five minutes to remove cellular debris. […]

[Ca^2+]i = Intracellular Ca^2+ by Fura2 imaging, WT and GluN2A KO mouse neuronal cultures; assay type: cell-based, mice; settings: somata and processes, L-homocysteine 50 μM, 60 min
Method: Embryos obtained from pregnant Sprague Dawley rats (16-17-day gestation) or wild type (WT) and GluN2A KO mice (15-16-day gestation) were used to establish primary cortical neuronal cultures as previously described (Poddar and Paul, 2009, J Neurochem 110:1095-1106; Poddar and Paul, 2013, J Neurochem 124:558-570; Poddar et al., 2017, J Neurochem 142:560-573). Neurons were grown on either (a) 35-mm culture dishes (MatTek Corp., Ashland, Mass.) coated overnight with poly-D-lysine (50 μg/ml) and laminin (10 μg/ml) for Ca^2+ imaging studies, (b) poly-D-lysine-coated 60 mm dishes (Corning BIOCOAT, Corning Inc., Corning, N.Y.) for biochemical studies, or (c) poly-D-lysine-coated 4-well culture slides (Corning BIOCOAT, Corning Inc., Corning, N.Y.) for cell death assay. Neurons were maintained in culture for 12-13 days before experiment. The cells were treated with freshly prepared L-homocysteine (50 μM) in Hank's balanced salt solution containing 50 μM of glycine (Lipton et al., 1997, Proceedings of the National Academy of Sciences of the United States of America 94:5923-5928; Poddar and Paul, 2009, J Neurochem 110:1095-1106; Poddar and Paul, 2013, J Neurochem 124:558-570; Poddar et al., 2017, J Neurochem 142:560-573) for the specified time periods. In a parallel series of experiments, cells were treated with glutamate (50 μM) for the specified time periods. Cells were then processed for live cell imaging, immunoblotting or cell death assay. In some experiments EGTA, DL-AP5, NVP-AAM077, Ro 25-6981 or PD98059 was added 15 minutes prior to L-homocysteine or glutamate treatment.
[Ca^2+]i in neurons was determined using the fluorescent indicator, Fura2-AM. […] Fluorescence excitations (340 and 380 nm) were provided with Sutter LB-LS/30 Lambda xenon arc lamp and fluorescence emissions (510 nm) were captured using a CCD camera (Teledyne Photometries, Tucson, Ariz.). […] Maximum and minimum fluorescence ratios were determined from Fura2 loaded cells treated with ionomycin (5 μM) in calcium containing medium (2 mM) or in calcium free media with EGTA (0.5 mM).

Question: With N[C@@H](CCS)C(=O)O [L-homocysteine] as the compound, how does the OGD-induced cell death [1] read?
Answer: increases by two-fold

Question: What about the PGE2 release (PGE2; GluN2A-KO mice cultures) of the same compound?
Answer: fails to induce PGE2 release

Question: And the PGE2 release (PGE2; WT mice cultures)?
Answer: significantly increases PGE2 release

Question: What about the “Fura2 fluorescence ratio and [Ca^2+]i” value ([Ca^2+]i; neurons from GluN2A KO mice) of the same compound?
Answer: fails to increase Fura2 fluorescence ratio or [Ca^2+]i

Question: And the “Fura2 fluorescence ratio and [Ca^2+]i” value ([Ca^2+]i; neurons from WT mice)?
Answer: progressive increase in Fura2 fluorescence ratio and [Ca^2+]i
